Square brackets hold non-standard residues; d marks the D form. Peptide text beside a SMILES is read from it.
How the values were obtained:
human whole blood [1] = test: PMA+ionomycin-induced cytokine release in human whole blood; type: cell-based; details: 1, 3, 10 μM; 4 hours
Procedure: FIG. 19 JNK inhibition and IL-2 release in human whole blood. The JNK inhibitor with SEQ ID NO: 172 was added at three different concentrations, namely 1, 3 and 10 μM 1 h before whole blood stimulation with PMA+ionomycin (25/700 ng/mL, 50/800 ng/mL and 50/1000 ng/mL) for 4 hours.
FIG. 20 JNK inhibition and IFN-γ release in human whole blood. The JNK inhibitor with SEQ ID NO: 172 was added at three different concentrations, namely 1, 3 and 10 μM 1 h before whole blood stimulation with PMA+ionomycin (25/700 ng/mL, 50/800 ng/mL and 50/1000 ng/mL) for 4 hours.
FIG. 21 JNK inhibition and TNF-α release in human whole blood. The JNK inhibitor with SEQ ID NO: 172 was added at three different concentrations, namely 1, 3 and 10 μM 1 h before whole blood stimulation with PMA+ionomycin (25/700 ng/mL, 50/800 ng/ml and 50/1000 ng/mL) for 4 hours.
Whole blood is collected from anesthetized rat or human healthy volunteers using a venipuncture connected to a pre-labeled vacuum tube containing sodium citrate. Tubes are gently mixed by inversion 7-8 times; and are then kept at RT until stimulation. JNK inhibitor of SEQ ID NO: 172 is prepared 6 times concentrated in PBS, and 30 μl/well of mix is added into 96-well plate. Whole blood is diluted by 1:2 in PBS and 120 μl of diluted blood is added in each well where either PBS alone or JNK inhibitor of SEQ ID NO: 172 has been previously added. Whole blood is incubated at 37° C.; 85 rpm (Stuart Orbital incubator SI500) for 60 min. Activators (LPS) are the prepared, 30 μl/well of LPS, 6 times concentrated. After 60 min incubation, LPS is added to the blood, blood is mixed by pipetting up and down, and then kept for 4 h under agitation (85 rpm), at 37° C. After the 4 h incubation, the plates are centrifuged at about 770 g, 4° C. for 15 min in a pre-cooled centrifuge. […] Cytokine (IL-6, IL-2, IFNγ and TNFα) were then measured using standard Elisa kits (e.g. from R&D Systems: DuoSet Elisas; or from BD Biosciences: BD Opteia Set Elisa). Results are expressed as pg/ml of supernatant of the measured cytokine. […]

human whole blood [2] = test: PHA-L-induced cytokine release in human whole blood, 3 days; type: cell-based; details: 1, 3, 10 μM, PHA-L 5 μg/mL
Procedure: FIG. 22 JNK inhibition and TNF-α release in human whole blood. The JNK inhibitor with SEQ ID NO: 172 was added at three different concentrations, namely 1, 3 and 10 μM 1 h before whole blood stimulation with PHA-L (5 μg/mL) for 3 days.
FIG. 23 JNK inhibition and IL-2 release in human whole blood. The JNK inhibitor with SEQ ID NO: 172 was added at three different concentrations, namely 1, 3 and 10 μM 1 h before whole blood stimulation with PHA-L (5 μg/mL) for 3 days.
Whole blood from human healthy volunteers was collected using a venipuncture connected to a pre-labeled vacuum tube containing sodium citrate. Tubes are gently mixed by inversion 7-8 times; and are then kept at RT until stimulation. 350 μl of RPMI+P/S were added into 1.2 ml-96-well plate. 10 times concentrated of SEQ ID NO: 172 was prepared in RPMI+P/S (50 μl per well). 50 μl was added into 1.2 ml-96 well plates. 50 μl of whole blood was then added in each well where either medium alone or JNK inhibitor has been previously added. Whole blood was incubated at 37° C., 5% CO2 for 60 min. 50 μl/well of ligands diluted in RPMI+P/S was prepared, corresponding to the final dilution 10 times concentrated. After 60 min of incubation, ligand was added; wells were then mixed by pipetting up and down the blood. […] Cytokine were then measured using standard Elisa kits. Results are expressed as pg/ml of supernatant of the measured cytokine.

## CC(C)C[C@H](NC(=O)[C@H](CC(N)=O)NC(=O)[C@H](CC(C)C)NC(=O)[C@@H](NC(=O)[C@@H](C)NC(=O)[C@@H]1CCCN1C(=O)[C@H](CCCNC(=N)N)NC(=O)[C@@H](CCCCN)NC(=O)[C@@H]1CCCN1C(=O)[C@H](CCCNC(=N)N)NC(=O)[C@@H](CCCNC(=N)N)NC(=O)[C@H](CCCNC(=N)N)NC(=O)[C@H](CCCNC(=N)N)NC(=O)[C@H](CCC(N)=O)NC(=O)[C@@H](CCCNC(=N)N)NC(=O)[C@H](CCCNC(=N)N)NC(=O)[C@H](CCCCN)NC(=O)[C@H](CCCCN)NC(=O)[C@H](N)CCCNC(=N)N)[C@@H](C)O)C(=O)N[C@H](Cc1ccccc1)C(N)=O [SEQ ID NO: 172, rKKRrQRRrRPkRPaTLNLf] (H-[dR]KKR[dR]QRR[dR]RP[dK]RP[dA]TLNL[dF]-NH2; N-terminus assumed)
Human whole blood [1]
  PMA+ionomycin-induced IFN-γ release: did reduce the PMA+ionomycin-induced IFN-γ release in a dose-dependent manner
  PMA+ionomycin-induced IL-2 release: did reduce the PMA+ionomycin-induced IL-2 release in a dose-dependent manner
  PMA+ionomycin-induced TNF-α release: did reduce the PMA+ionomycin-induced TNF-α release in a dose-dependent manner
Human whole blood [2]
  PHA-L-induced IL-2 release: did reduce the PHA-L-induced IL-2 release in a dose-dependent manner
  PHA-L-induced TNF-α release: did reduce the PHA-L-induced TNF-α release in a dose-dependent manner
